# Laboratory results as given in a melting point compilation (Tetko et al.; mined from patent text by program, amines drawn as free bases though some values may be those of a salt).
row,Compound,melting point [°C]
1,CC(=O)O[C@@H](c1cnnn1-c1ccccc1)[C@@H](CCN1CCC(N2CCCCC2=O)CC1)c1ccc(Cl)c(Cl)c1 (racemic),65 to 67
2,CCCc1nnc(C(Cc2ccc(-c3cccc(CN(C)C(=O)c4ccccc4)c3)cc2)Nc2ccccc2C(=O)c2ccccc2)o1 (centres undefined),65
3,CCOC(=O)c1nnc2ccc([N+](=O)[O-])cc2c1O,294 to 296
4,CC(C)(C)OC(=O)Nc1cc(OCc2ccccc2)c2ncccc2c1I,118 to 119
5,Cn1nc2cccc(OCCF)c2c1S(N)(=O)=O,178 to 180
6,CCOC(=O)c1cnn2c(-c3cccc(C(F)(F)F)c3)ccnc12,97 to 99
7,C=Cc1ccc(CNc2ccccn2)c(Cl)c1,119 to 121
8,COc1ccccc1N1CCN(CNC(=O)c2ccc(Cl)cc2)CC1,145 to 147
9,CCOC(=O)c1c(O)c2cnc(-c3ccccc3)nc2n(CC)c1=O,177 to 180
10,Cc1ncn(Cc2ccc(NC(=O)C(F)(F)F)cc2C(F)(F)F)c1C,238 to 239
11,Cc1cc2c(-c3cccnc3Cl)nc(O)nc2s1,> 300
12,CC(C)(C)c1cc(SCCc2nnco2)cc(C(C)(C)C)c1O,87.5 to 89
13,CCOC(=O)CCc1nnc(CNC(=O)c2ccc(Cl)c(Cl)c2)n1-c1sc(CC)cc1C(=O)c1ccccc1Cl,153 to 155
14,CCN(CC)c1ccc(-n2cc(-c3ccc(C4=C(C#N)C(=C(C#N)C#N)OC4(C)C)cc3)nn2)cc1,265
15,NC(=O)CCC(C(=O)O)N1C(=O)c2cccc(N)c2C1=O (centres undefined),165 to 167
16,COC(=O)Nc1cc2c(=O)n(NS(C)(=O)=O)c(=O)[nH]c2cc1C(F)(F)F,232 to 240
17,O=C(Nc1ccc(OCc2ccoc2)c2ccccc12)c1cc(F)cc(N2CCCCC2)c1,152 to 153
18,Cc1nn(C)c(C#N)c1NC=O,135
19,COCCN1CCc2ccc(Nc3ncc(Cl)c(N[C@@H]4CCC[C@H]4NS(C)(=O)=O)n3)cc2CC1 (relative stereo),74
20,CC(C)(CCO)c1ccc(C(=O)Nc2cn3cc(-n4ccnc4)ccc3n2)cc1,225 to 227
21,Cc1cc(-c2cc(C(F)F)n3ncc(C(=O)Nc4nc(C)c(S(=O)(=O)NC(C)(C)CO)s4)c3n2)ccc1C(F)(F)F,271
22,COC(=O)c1cc(S(N)(=O)=O)ccc1S(=O)(=O)CCCO,124 to 126
23,C=CCn1c2ccccc2c2c(N)c(C(=O)OC)c(C)nc21,78 to 85
24,COc1ccc(NN=C(Sc2ccc(C)c(C)c2)C(C)=O)cc1,138 to 141
25,CNC(=NOC)C1=Nc2ccc(Cl)cc2C(c2ccccc2F)=NC1,140 to 142

row,Compound,melting point [°C]
1,COc1ccc(N2CCN(c3c(C)c(C)c4c(c3C)C(O)(c3ccc(F)nc3)C(C)(C)O4)CC2)cc1 (centres undefined),129 to 131
2,Oc1ccc(NCC2Cc3ccccc3C2)cc1,106 to 109
3,COC(=O)[C@@H]1CSSCC(C)(C)C(=O)N1,87 to 89
4,CCC(=O)NCCC1CCc2cc(Br)c3c(c21)C=CCO3 (centres undefined),110 to 111
5,"O=C(NC(CS)Cc1ccccc1)N1CCSCC1 (single isomer, unassigned; (+))",98 to 100
6,COc1ccc2c(c1)C(N1CCCC1=O)NN=C2Cc1c(Cl)cncc1Cl (centres undefined),223 to 225
7,CCCCCCSC1c2cccc(O)c2C(=O)c2c(O)cccc21,49 to 50
8,COc1cc2cc(CO)c(CO)c(-c3ccnc(-n4c(=O)ccc5ccccc54)c3)c2cc1OC,> 230
9,CCOP(=O)(OCC)c1cnn(-c2ccc(Cl)c(Cl)c2Cl)c1N,114
10,Cc1cc(C)c(CC(=O)O)cc1C,123 to 125
11,NC(=O)c1ccc(-c2ccc3nnn(Cc4ccc5ncccc5c4)c3n2)cc1Cl,212 to 215
12,CCOC(=O)/C(=N\O)N1N=C(N)C(Cc2ccccc2)C1=O (centres undefined),102 to 108
13,CC1(C)C(=O)Nc2ccc(-c3cccc(C#N)c3F)cc21,231 to 232
14,COCCNC(=O)c1cc2cc(OCCNC[C@H](O)COc3ccccc3)ccc2o1,95 to 96
15,O=c1oc2ccccc2c(O)c1CCC(O)c1ccccc1 (centres undefined),138 to 140
16,Cc1nc(-c2ccc(OC(F)(F)F)cc2)ccc1CO,68 to 69
17,O=C(c1ccccc1)N1N=CCC1c1ccccc1 (centres undefined),105 to 106
18,CCOC(=O)CC(=O)c1ccc(Br)c(OC)c1F,52 to 53
19,COc1cc(OC)nc(NC(=O)NS(=O)(=O)c2cscc2C)n1,175 to 178
20,O=C(O)c1cccc(=O)n1OCc1ccccc1,176 to 177
21,CC(C)CCn1cn[nH]c1=O,78 to 79
22,C[C@@H](n1cnc2cc(-c3ccc(S(C)(=O)=O)cc3)sc2c1=O)[C@](O)(Cn1cncn1)c1ccc(F)cc1F,281 to 282
23,Nc1ccccc1CCCC(C(=O)O)N1C(=O)c2ccccc2C1=O (centres undefined),258 to 260
24,CCCc1[nH]c2cc(C(=O)O)ccc2c1C(=O)C1CCCCC1,217 to 218
25,Cc1cccc(-c2n[nH]cc2-c2ccc(F)c(-c3cn(CCO)cn3)c2)n1,248

row,Compound,melting point [°C]
1,CCOC(=O)C(=CNC1CCCCC1)C(=O)c1ccc(I)cc1Cl,154 to 156
2,O=C(NC(Cc1ccc(OCc2ccccc2)cc1)c1noc(=O)[nH]1)c1cn2cc(-c3ccc(Cl)cc3)ccc2n1 (centres undefined),167
3,O=C(O)CCN=c1sc2ccccc2s1,203 to 204
4,CC1CC(=O)N[C@@H]2CCc3cc(Cl)ccc3[C@@H]12 (some centres undefined),71.5 to 73
5,O=C(NCc1ccccc1)NNC(=O)c1ccc(Cl)cc1,244 to 246
6,CCCCCCCCn1c2cc(OC)ccc2c2ccc(OC)cc21,63 to 64
7,CN1C(=O)N(c2c(Cl)cccc2Cl)Cc2cnc(Nc3ccc(CCO)cc3)nc21,148 to 151
8,O=C1CCCN1c1cnc2cnc(-c3ccc(O)cc3)nc2c1,> 268
9,CCCC(CCC)C(=O)NC(C)C(=O)OC (centres undefined),72 to 73
10,CCOC(=O)c1ccc(CO)cn1,64
11,CN1c2ccccc2-c2nc3ccc(/C=C/C(N)=O)cc3c3cccc1c23,284 to 286
12,CCOC(=O)c1cnc2nc(C=CC(N)=O)c(OCC)cc2c1Nc1ccc(OC)cc1,238 to 242
13,COC(=O)C(C(=O)c1cn2c3c(cccc13)CCC2)c1cn(C(=O)OC(C)(C)C)c2ccccc12 (centres undefined),86 to 91
14,CCCCC(C)(CC)C(=O)C(Oc1ccc(-c2ccccc2)cc1)n1cnnc1 (centres undefined),67 to 68
15,O=C(O)c1cc(-c2ccc(C(F)(F)F)cc2)c2c3c(ccc2c1)OCO3,207 to 209
16,[N-]=[N+]=C1c2ccccc2-c2ccc(F)cc21,89 to 90
17,O=C(O)CCCc1nc(-c2cccnc2)c(-c2ccccc2)s1,141 to 142
18,CSC[C@H](NC(C)=O)C(=O)NO,126 to 127
19,CC(C)(C)OC(=O)Nc1ccc2ccc(S(=O)(=O)N(Cc3ccccc3)Cc3ccccc3)cc2c1Br,150 to 151
20,CC(C)C(CN1CCCC1)C(=O)c1cc(-c2ccccc2)no1 (centres undefined),77 to 79
21,CC(C)c1cc2ncccc2cc1Oc1cnc(NC(CO)CO)nc1N,172 to 174
22,Cc1c(Br)cc(C(C)(CO)c2ccc(C(C)C)cc2)c(O)c1C (centres undefined),110 to 111
23,CS(=O)(=O)c1ccc(C(=O)O)c(Cl)c1C1=NOCC1,145 to 146
24,CSC(=C[N+](=O)[O-])NCCCOc1cccc(CN2CCCCC2)c1,68 to 69.5
25,COc1ccc(CCN(C)CCOc2ccc(NC(=O)c3cccc4c(=O)c5ccccc5n(C)c34)cc2)cc1OC,139

row,Compound,melting point [°C]
1,CCOC(=O)C=C1c2ccccc2C=C(OC)c2sccc21,91 to 93
2,Cc1c(Br)c2c(c(C)c1NC(=O)OC(C)(C)C)CC(C)O2 (centres undefined),115 to 116
3,CCOC(=O)C(=CNc1cc(=O)c2ccccc2o1)C(=O)OCC,138 to 140
4,NCCCNc1ncc2ncnc(Nc3ccc(F)c(Cl)c3)c2n1,177 to 179
5,Cc1ccc(S(=O)(=O)OCC2Cc3cc(F)cc(Br)c3O2)cc1 (centres undefined),84 to 86
6,CCCn1cc2c(C3C(=O)Nc4ccc(Br)cc43)nc(NCCc3ccccn3)nc2n1 (centres undefined),283 to 291
7,COc1ccc2cc(C=CC(C)=O)ccc2c1,114 to 116
8,O=C(CCc1ccccc1)N[C@H]1CC[C@H](c2ccc(O)cc2)CC1,201 to 206
9,CC(C)COC(=O)N[C@@H](CC(C)C)C(=O)N[C@@H](Cc1ccccc1)C(=O)CSCc1ccco1,89 to 90
10,COC1CC(n2cc(C=CBr)c(=O)[nH]c2=O)OC1CF (centres undefined),177
11,CC(=O)OCC1OC(n2cc(C)c(=O)[nH]c2=O)CC1N=[N+]=[N-] (centres undefined),96 to 98
12,CS(=O)(=O)c1ccc(-c2cnn(Cc3cccnc3)c(=O)c2-c2ccc(F)cc2)cc1,160 to 161
13,CCN1CCNC(=O)c2ccc(Nc3ncc(Cl)c(N[C@@H]4CCCC[C@H]4NS(C)(=O)=O)n3)cc21,216 to 220
14,O=C1c2ccccc2C(=O)N1CCOc1nc(-c2ccccc2)c2cc(Cl)ccc2n1,155
15,COC1CCN(C2CCN(c3ccc(NC(=O)c4cnn(-c5ccc(Cl)cc5)c4C)cc3C#N)CC2)CC1,245
16,COc1cc(C=O)cc(OC)c1C(C)(C)O,55
17,CCC(C)(CC)N=C(NC#N)Nc1cc(Cl)cc(Cl)c1,148 to 150
18,CCOC(=O)c1cnc2sc(Br)c(C)c2c1O,214 to 216
19,CNC(=O)N1CCC(Oc2c(F)c(F)c(F)c(F)c2F)(c2ccccc2)CC1,87 to 89
20,COC(=O)C(=C(C)C)N1CC(N2C(=O)c3ccccc3C2=O)C1=O (centres undefined),127 to 128
21,COc1cc2cc(-c3ccncc3)oc2cc1OC,227 to 229
22,CC(C)(C)C(NC(=O)c1cc(F)cc(F)c1)Nc1c(Nc2cccnc2Cl)c(=O)c1=O (centres undefined),215 to 217
23,[N-]=[N+]=Nc1cc(Cl)nc(-c2ccc([N+](=O)[O-])o2)n1,114 to 116
24,BrCc1cc2ccsc2c2ccccc12,99 to 101
